Data: paper PMC10042540, “Targeting oncogenic KRasG13C with nucleotide-based covalent inhibitors” (eLife, 2023)
pKd: −log10 of the molar value.

Assays:
[1] = molecular target: KRas; set-up: method as in Jeganathan et al., 2018; details: reference value for GDP; ref Jeganathan et al., 2018; cited from earlier work
[2] = molecular target: KRasWT1-169 (Homo sapiens, UniProt P01116); assay: HPLC-based approach for determination of affinities relative to GDP; assay type: binding; details: KA = KA(GDP) x KrelA; GDP from KA = 1/KD
Sequence of KRasWT1-169 (P01116 1-169): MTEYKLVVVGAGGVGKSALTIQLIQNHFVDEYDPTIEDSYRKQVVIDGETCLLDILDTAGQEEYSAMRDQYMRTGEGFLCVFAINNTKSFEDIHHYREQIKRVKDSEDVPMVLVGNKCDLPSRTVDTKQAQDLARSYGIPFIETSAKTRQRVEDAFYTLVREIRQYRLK
Description: The relative affinities of the nucleotide analogues were measured using an HPLC-based approach. 50 μM of […] was mixed with 50 μM of the acetamide derivatives and incubated either for 7 days at room temperature in the absence of EDTA, for 24 hr at 4 °C in the presence of 10 mM EDTA, or for 1 hr at room temperature in the presence of SOS in a buffer consisting of 20 mM HEPES (pH 7.5), 100 mM NaCl, 2 mM MgCl2, 1 mM TCEP and 5% glycerol. After incubation, the Ras proteins were washed five times with buffer (15 mL) using centrifugal filter devices to remove any unbound nucleotide, concentrated and analysed by isocratic HPLC runs. The resulting curves were analysed by integrating the corresponding peaks for GDP and the guanosine nucleotide analogues after distinct time points using the Agilent ChemStation Software (Table 1-source data 3, Table 1-source data 4). Based on the percentage distribution determined by the HPLC assay, the relative association constants (KrelA) for […] and bdaGDP could subsequently be calculated. In contrast, the superposition of the GDP signal prevented an exact determination of the relative association constant for […] values of 0.34 and 0.28 relative to GDP were determined for […] and bdaGDP, respectively. […] By rearranging the equilibrium reactions listed in (Equation 1a) and (Equation 1b), the following relationships are obtained for KGDP (Equation 2a) and […] Assuming that the concentration for aGDP used in the HPLC assay is 50 μM, the following GDP concentrations for […] (Equation 3a) and bdaGDP (Equation 3b) can be determined at time t=0 hr using the percentages determined in Table 1-source data 3:(3a) GDPtotal=%GDP/%[…]=37%/63%×50μM=29.4μM (3b) GDPtotal=%GDP/%bdaGDP=43%/57%×50μM=37.7μM The concentrations of the components listed in equation (Equation 2b) can be calculated as follows for […] (Equation 4a, Equation 4b, Equation 4c, Equation 4d) and bdaGDP (Equation 5a, Equation 5b, Equation 5c, Equation 5d) by considering the total GDP concentrations calculated previously:(4[…]]=47/100×29.4μM=13.8μM (4b) [Ras:GDP]=53/100×29.4μM=15.6μ[…]]=50μM-13.8μM=36.2μM (4d) [GDP]=29.4μM-15.6μM=13.8μM (5a) [Ras:bdaGDP]=39.5/100×37.7μM=14.9μM (5b) [Ras:GDP]=60.5/100×37.7μM=22.8μM (5c) [bdaGDP]=50μM-14.9μM=35.1μM (5d) [GDP]=37.7μM-22.8μM=14.9μM The relative association constant KrelA can be calculated by the following formula (Equation 6):(6) […] By inserting the concentrations of each component determined from (Equation 4a, Equation 4b, Equation 4c, Equation 4d) and (Equation 5a, Equation 5b, Equation 5c, Equation 5d) into (Equation 6), the relative association constants KrelA for […] (Equation 10a) and […]=1/0.136pM^-1=7.4pM (10b) KDbdaGDP=1/0.112pM^-1=8.9pM

[3] = tested on: nucleotide-free KRas; assay: Stopped-flow competition with mantdGDP (association kinetics); assay type: binding; details: for kon: 25 °C, 1 µM KRas, 2 µM mantdGDP, 1, 2, 6 µM competing nucleotide, global fit
Description: The association kinetics of the nucleotide analogues were analyzed with a SX-20 stopped-flow instrument (Applied Photophysics) at 25 °C in a buffer consisting of 25 mM HEPES (pH 7.5), 100 mM NaCl, 1 mM MgCl2, and 0.5 mM TCEP. 1 µM of nucleotide-free KRas ([Müller et al., 2017]) in one syringe was mixed rapidly with 2 µM mantdGDP in the other. In subsequent experiments, the second syringe contained competing nucleotides (1, 2, and 6 µM) in addition to 2 µM mantdGDP. The resulting progress curves were globally fit using KinTek Explorer to obtain the corresponding association rate constants as previously described (Table 1—source data 1, Table 1—source data 2 [Johnson et al., 2009]).

[4] = tested on: T1, KRasG13C1-169 (Cys-light); assay: Covalent modification of protein controlled by ESI-MS; assay type: binding
T1 construct: KRasWT1-169 and KRasG13C1-169 Cys-light (C51S C80L C118S) were expressed in BL21 (DE3) E. coli; hexahistidine (TEV site) (N, cleaved yes); made in house; host or cells: E. coli BL21 (DE3)
Description: After incubation at room temperature for the appropriate time, the modification of the protein was controlled by ESI-MS. For covalent modification of full-length KRasG13C, a nucleotide exchange with a 10-fold excess of the acryl-bearing nucleotides at pH 7.5 was first performed following incubation at room temperature for 24 h at pH 9.5 for covalent protein modification. Covalent protein modification was controlled by ESI-MS. The MS spectra were recorded on a VelosPro IonTrap (Thermo Scientific) with an EC 50/3 Nucleodur C18 1.8 μm column (Macherey and Nagel) and a gradient of the mobile phase A (0.1% formic acid in water) to B (0.1% formic acid in acetonitrile).

[5] = tested on: Rab21; assay: as above; assay type: binding; details: compared to KRasG13C

| SMILES | pKd [1] | KA [2] [pM⁻¹] | kon [3] [µM^–1s^–1] | koff ([3]; calculated kinetic parameter) | covalent labelling of KRasG13C1-169 (Cys-light) ([4]; pH 7.5, after 24 hr) | covalent labelling of KRasG13C1-169 (Cys-light) ([4]; pH 9.5, after 24 hr) [%] | covalent modification of Rab21 [5] |
| --- | --- | --- | --- | --- | --- | --- | --- |
| Nc1nc2c(ncn2[C@@H]2O[C@H](COP(=O)(O)OP(=O)(O)O)[C@@H](O)[C@H]2O)c(=O)[nH]1 [GDP, reference compound] | 11.60 | 0.4 | 4.22 | 1.1x10^–5 s^–1 | – | – | – |
| C=CC(=O)NCCNC(=O)O[C@H]1[C@@H](O)[C@H](n2cnc3c(=O)[nH]c(N)nc32)O[C@@H]1COP(=O)(O)OP(=O)(O)O [edaGDP] | – | – | 3.73 | – | slight labelling | ~100 | comparable to KRasG13C |
